Test results reported in PubChem BioAssay AID2060882 (Molecular Pharmacology Branch, DTP, NCI, 2025).

Test system: 898857-211-R-J1-PDC complex spheroids, growth % test/control
Test: Anticancer human tumor 898857-211-R-J1-PDC patient-derived melanoma cell line growth inhibition [RAS]
Conditions: for IC50: curve of first compound; for viability, T/C: stronger effect = lower value
Outline: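 Agents were tested in combination matrices in half-log decrements from a top concentration at or near clinical Cmax (10 microM if undetermined). Targets were multi-cell spheroids of tumour lines plus HUVEC and MSC stromal cells.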
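Further: spheroids exposed to compound for seven days before readout.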
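Wherever viability, T/C is given: 100% = DMSO vehicle control wells.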

SMILES: Cc1nc(N2CCC3(CC2)COC(C)C3N)c(CO)nc1Sc1ccnc(N)c1Cl (configuration not stated) + CCn1c(-c2cccnc2C(C)OC)c2c3cc(ccc31)N1CCOC(CC(NC(=O)C(C(C)C)N(C)C(=O)C3(F)CCN(C(=O)C#CC(C)(C)N(C)C)CC3)C(=O)N3CCCC(N3)C(=O)OCC(C)(C)C2)C1
- IC50 (second compound 0.000949 µM): > 10 µM
- IC50 (second compound 0.003 µM): > 10 µM
- IC50 (second compound 0.00949 µM): > 10 µM
- IC50 (second compound 0.03 µM): > 10 µM
- IC50 (second compound 0.0949 µM): > 10 µM
- IC50 (second compound 0.3 µM): > 10 µM
- viability, T/C (second compound 0.000949 µM, first compound 0.0316 µM): 94.5%
- viability, T/C (second compound 0.000949 µM, first compound 0.1 µM): 94.9%
- viability, T/C (second compound 0.000949 µM, first compound 0.316 µM): 103%
- viability, T/C (second compound 0.000949 µM, first compound 1 µM): 98.8%
- viability, T/C (second compound 0.000949 µM, first compound 3.16 µM): 93.1%
- viability, T/C (second compound 0.000949 µM, first compound 10 µM): 90.6%
- viability, T/C (second compound 0.003 µM, first compound 0.0316 µM): 98.6%
- viability, T/C (second compound 0.003 µM, first compound 0.1 µM): 98.5%
- viability, T/C (second compound 0.003 µM, first compound 0.316 µM): 97.6%
- viability, T/C (second compound 0.003 µM, first compound 1 µM): 95.7%
- viability, T/C (second compound 0.003 µM, first compound 3.16 µM): 113%
- viability, T/C (second compound 0.003 µM, first compound 10 µM): 93.4%
- viability, T/C (second compound 0.00949 µM, first compound 0.0316 µM): 99.7%
- viability, T/C (second compound 0.00949 µM, first compound 0.1 µM): 104%
- viability, T/C (second compound 0.00949 µM, first compound 0.316 µM): 107%
- viability, T/C (second compound 0.00949 µM, first compound 1 µM): 96%
- viability, T/C (second compound 0.00949 µM, first compound 3.16 µM): 92.3%
- viability, T/C (second compound 0.00949 µM, first compound 10 µM): 85.1%
- viability, T/C (second compound 0.03 µM, first compound 0.0316 µM): 93.2%
- viability, T/C (second compound 0.03 µM, first compound 0.1 µM): 90.2%
- viability, T/C (second compound 0.03 µM, first compound 0.316 µM): 96.8%
- viability, T/C (second compound 0.03 µM, first compound 1 µM): 109%
- viability, T/C (second compound 0.03 µM, first compound 3.16 µM): 89.5%
- viability, T/C (second compound 0.03 µM, first compound 10 µM): 92%
- viability, T/C (second compound 0.0949 µM, first compound 0.0316 µM): 90.6%
- viability, T/C (second compound 0.0949 µM, first compound 0.1 µM): 100%
- viability, T/C (second compound 0.0949 µM, first compound 0.316 µM): 87.7%
- viability, T/C (second compound 0.0949 µM, first compound 1 µM): 96.3%
- viability, T/C (second compound 0.0949 µM, first compound 3.16 µM): 92%
- viability, T/C (second compound 0.0949 µM, first compound 10 µM): 88.6%
- viability, T/C (second compound 0.3 µM, first compound 0.0316 µM): 85.2%
- viability, T/C (second compound 0.3 µM, first compound 0.1 µM): 82.7%
- viability, T/C (second compound 0.3 µM, first compound 0.316 µM): 77.4%
- viability, T/C (second compound 0.3 µM, first compound 1 µM): 76.9%
- viability, T/C (second compound 0.3 µM, first compound 3.16 µM): 74.2%
- viability, T/C (second compound 0.3 µM, first compound 10 µM): 69.5%
